The values below come from patent US7160733B2, “Ligand specific to β2-glycoprotein I and use thereof” (priority 2001, dated 2007).

One experiment has as its target T1, β2-GPI (Homo sapiens, UniProt P02749).
T1 construct: β2-GPI was purified from normal human plasma as described in [35] with slight modification; from tissue; host or cells: pooled normal human plasma from healthy subjects
T1 sequence (P02749 20-345): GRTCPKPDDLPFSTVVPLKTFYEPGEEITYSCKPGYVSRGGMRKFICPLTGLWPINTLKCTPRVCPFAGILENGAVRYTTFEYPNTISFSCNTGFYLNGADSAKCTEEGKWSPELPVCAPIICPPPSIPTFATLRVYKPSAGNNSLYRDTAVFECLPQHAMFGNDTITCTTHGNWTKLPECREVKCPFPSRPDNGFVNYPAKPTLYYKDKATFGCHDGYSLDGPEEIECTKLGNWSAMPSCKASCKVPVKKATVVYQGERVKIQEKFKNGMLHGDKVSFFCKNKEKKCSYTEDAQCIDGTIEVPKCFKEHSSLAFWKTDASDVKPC
As to the kind of experiment: ELISA on solid-phase lipid (ligand)-coated plate: β2-GPI binding detected with Cof-22. Conditions: for β2-GPI binding to lipid: result in words (discussion). As to the method:
(§1) Binding to extracted lipids: A microtiter plate (Immulon 1B, Dynex Technologies Inc.) was coated with lipids extracted from LDLs (50 μg/mL, 50 μL/well) by ethanol evaporation. The wells were blocked with PBS containing 1% BSA for one hour and the wells were incubated with 30 μg/mL of β2-GPI for one hour. Then, β2-GPI binding was detected using Cof-22 and HRP-labeled anti-mouse IgG antibodies. Alternatively, an anti-β2-GPI autoantibody (Cof-22, WB-CAL-1, or EY2C9) was diluted with a 0.3% BSA-containing PBS, and the diluted antibody was added to the coated plate (1.0 μg/mL, 100 μL/well) and incubated with β2-GPI (15 μg/mL) for one hour. The binding of the antibody was detected by an HRP-labeled anti-mouse IgG /or an anti-human IgM. The color was developed with H2O2 and o-phenylenediamine, and OD was measured at 490 nm. Between these steps, extensive washing were done using PBS containing 0.05% Tween 20.
(§2) Synthesized oxLig-1 (50 μg/mL, 50 μL/well) was adsorbed by evaporation on a polystyrene plate (Immulon 1B; Dynex Technologies Inc.), and the plate was then blocked with 1% BSA. Serum samples (diluted 1:100 with PBS containing 0.3% BSA) were incubated in the wells with β2-GPI (15 μg/mL) or other proteins for one hour at room temperature. Antibody binding was detected with HRP-labeled anti-human IgG. Further steps were performed through a method as described in “anti-β2-GPI ELISA.”
(§3) CL (50 μg/mL, 50 μL/well) was adsorbed on a polystyrene plate (Immulon 1B), and further steps were performed through a method as described in “ELISA for antibodies against a protein-oxLig-1 complex.”

In the next experiment the test system is anti-β2-GPI antibodies. As to the kind of experiment: ELISA of the anti-β2-GPI antibodies by use of a ligand-coated plate (results in words). In kind it is binding. Particulars: result in words. As to the method:
as §1, §2

A further experiment has as its system WB-CAL-1. The experiment can be described thus: ELISA on solid-phase lipid (ligand)-coated plate: WB-CAL-1 binding in presence of β2-GPI. Also noted: species or system mouse. Particulars: absorbance at 490 nm, mean ± SD (n = 3); solid-phase ligand not methylated. As to the method: as §1, §2, §3
On the technique in general: ELISA stands for enzyme-linked immunosorbent assay.

In the next experiment the test system is EY2C9. As to the kind of experiment: ELISA on solid-phase lipid (ligand)-coated plate: EY2C9 binding in presence of β2-GPI. Also noted: species or system human. Particulars: absorbance at 490 nm, mean ± SD (n = 3); solid-phase ligand not methylated. As to the method: as §1, §2, §3

`CC(C)CCC[C@@H](C)[C@H]1CC[C@H]2[C@@H]3C(=O)C=C4C[C@@H](O)CC[C@]4(C)[C@H]3CC[C@]12C` [7-ketocholesterol, 5-cholesten-3β-ol-7-one, reference compound]: at β2-GPI, the “β2-GPI binding to lipid” value is “did not bind”. Besides, in the experiment on anti-β2-GPI antibodies, the “binding of the three antibodies (WB-CAL-1, EY2C9, mouse monoclonal anti-β2-GPI antibody) to immobilized lipid” value was “did not bind”.

Take `CCCCC/C=C\C/C=C\CCCCCCCC(=O)O[C@H]1CC[C@@]2(C)C(=CC[C@H]3[C@@H]4CC[C@H]([C@H](C)CCCC(C)C)[C@@]4(C)CC[C@@H]32)C1` [Cholesteryl linoleate, reference compound]: the “β2-GPI binding (Cof-22 binding), No treatment” value on β2-GPI (absorbance at 490 nm, mean ± SD (n = 3), solid-phase ligand not methylated) is on record as 0.061 +/− 0.005. Besides, the “β2-GPI binding to lipid” value on β2-GPI is listed as “did not bind”. Moreover, the “WB-CAL-1 binding, No treatment” value in the experiment on WB-CAL-1 is listed as 0.056 +/− 0.002. Further, the “binding of the anti-β2-GPI autoantibodies (WB-CAL-1 and EY2C9) to solid-phase ligand” value in the experiment on anti-β2-GPI antibodies (ligand-coated plate) is “no such binding was observed”. Further, in the experiment with EY2C9, the “EY2C9 binding, No treatment” value is 0.074 +/− 0.012.

Consider `CC(C)CCC[C@@H](C)[C@H]1CC[C@H]2[C@@H]3CC=C4C[C@@H](O)CC[C@]4(C)[C@H]3CC[C@]12C` [cholesterol, Cholesterol, reference compound], for which, at β2-GPI, the “β2-GPI binding to lipid” value is on record as “did not bind”. For the same compound, the “binding of the three antibodies (WB-CAL-1, EY2C9, mouse monoclonal anti-β2-GPI antibody) to immobilized lipid” value with anti-β2-GPI antibodies is “did not bind”.
